What was measured:
[1] = tested on: BV-2 microglia cells; experiment: Anti-inflammatory assessment in LPS-stimulated BV-2 cells (NO, ROS, IL-6, TNF-α); format: cell-based, mouse; details: 10 μM pretreatment 1 h, then LPS 18 h
Protocol: Mouse microglial (BV-2) cell line was a generous gift from Prof. Bożena Kamińska-Kaczmarek of the Nencki Institute of Experimental Biology, Polish Academy of Sciences, Warsaw, Poland. The cell culture medium: Dulbecco’s modified with high glucose (DMEM, Glutamx ThermoFisher) and supplemented with 10% inactivated fetal bovine serum heat (ThermoFisher), 100 IU/mL penicillin (Merck) and 100 μg/mL streptomycin (Merck). Cell culture conditions: culture flasks (area 175 cm^2, Nunc), temperature of 37 °C, 5% CO2. For the assessment of the effect of tested compounds on the quantities of reactive oxygen species, nitric oxide, and inflammatory markers, the BV-2 cells were positioned in a 96-well culture plate (5 × 10^4 cells per well, Falcon). In the case of cell membrane damage assay, a 96-well culture plate (2 × 10^4 cells per well, Falcon) was used. The cells were cultured in the incubator (37 °C, 5% CO2) for 24 h prior to the assay. The tested compounds were dissolved in DMSO to achieve the concentration of 10^–2 M. Serial dilutions of the compounds were prepared in PBS and added directly to the medium containing adherent cells. The resulting mixtures were examined for any evidence of precipitation or opalescence before the assay. BV-2 cells were incubated with selected molecules (6, 16 at a concentration of 10 μM) during 1 h. Subsequently, lipopolysaccharide (100 ng/mL) was added and the resulting mixture was incubated for 18 h. Next, the culture supernatant was collected to measure the levels of nitric oxide (NO), reactive oxygen species (ROS), IL-6, and TNF-α according to the procedures described in detail below. All experiments were performed in duplicates, in three independent experiments.
The quantities of NO produced by the cells were determined using DAN reagent (2,3-diaminonaphthalene), rendering the method protocol described by Nussler et al.[48] After incubating at room temperature for 15 min, the fluorescence intensity (EX 360; EM 440 nm) was measured using a microplate reader POLARstar Omega from BMG Labtech. The amounts of NO were then calculated as a percentage of the control (which represents the maximal response of LPS). ROS measurement. The fluorescent dye 2,7-dichlorodihydrofluorescein diacetate (DCFH-DA)[49] was utilized to determine the quantity of ROS released by BV-2 cells. After a 30 min incubation period at 37 °C with 10 μM DCFH-DA, the fluorescence intensity (EX 490; EM 520 nm) was examined using a microplate reader POLARstar Omega from BMG Labtech. The amounts of ROS were then expressed as a percentage of the control (which represents the maximal response of LPS). The IL-6 and TNF-α levels detected in the culture supernatants were quantified using LANCE Ultra TR-FRET detection kit (PerkinElmer), rendering the manufacturer’s procedure. The detection of IL-6 and TNF-α was performed independently in a 384-well plate according to the instructions provided. To each well of the plate, 15 μL of sample was added followed by the addition of 5 μL of premixed antibody solution. After incubating IL-6 for 1 h and TNF-α for 3 h in the absence of light, at 22 °C, the plates were transferred to an EnVision plate reader (PerkinElmer). Measurements were conducted at 320 nm wavelength for excitation, at 615 nm for donor emission, and at 660 nm for acceptor emission. The final data were determined as the ratio of the 660 nm signal to the 615 nm signal. The results represent the levels of each cytokine determined as a percentage of control (considered as maximal cell response to LPS). The GraphPad program was used to conduct statistical analysis, with all outcomes presented as mean values with standard deviation (SD). Differences between groups were assessed using one-way ANOVA, followed by post hoc analysis (Dunnett’s multiple comparison tests). Results were considered statistically significant if the p-value was less than 0.05. […]

[2] = tested on: BV-2 microglia cells; experiment: Evaluation of microglia morphology by fluorescence microscopy (MitoTracker) after LPS; format: cell-based, mouse; details: 10 μM pretreatment 1 h, LPS 18 h
[3] = tested on: female Wistar rats; experiment: Forced swim test in rats; format: in vivo, rat; details: acute, ip 30 min before test
Protocol: Naïve female Wistar rats (weighing 180–200 g) were used in the study. The animals were housed in groups of three to four in standard Makrolon cages (37 cm × 21 cm × 15 cm) under strictly controlled laboratory conditions (ambient temperature 21–24 °C, relative humidity 45–65%) with a 12/12 h light–dark regime (light on at 6:00 a.m. and off at 6:00 p.m.). Animals had unrestricted access to tap water and food (typical pellets). Prior the experiment the animals were randomly appointed to the group. The behavioral studies were accomplished between 8:00 a.m. and 5:00 p.m. with the researcher blind to the study. The experiments were performed according to protocols approved by the Local Ethical Committee in Krakow (Approval Number 147/2018), Poland. Housing and experimental procedures were conducted under the European Union Directive of September 22, 2010 (2010/63/EU) and Polish legislation regarding animal studies. All efforts were made to minimize animal suffering and the number of animals used in the study.
Vortioxetine (Sigma, Germany) and the tested compounds (16 and 6) were dissolved in 10% cyclodextrin and administered ip 30 min before the test or during 14 consecutive days, with the last injection 60 min before the test. 10% cyclodextrin was administrated to control group.
A modified forced swim test was carried out according to Detke et al.[50],[51] First, the animals were individually placed inside Plexiglas cylinders, which were 40 cm high and 18 cm in diameter, filled with water at a temperature of 23–25 °C for 15 min. Afterward, the rats were transferred to a Plexiglas box and kept under a 60 W bulb for 30 min to dry. The day after, exactly 24 h later, the rats were once again placed in the cylinder, and their duration of immobility, swimming, and climbing was observed and recorded during a 5 min. The swimming behavior involved energetic movements such as horizontal swimming around the cylinder, while climbing activity referred to upward movements of the forepaws along the swim chamber’s side. Immobility was recorded when the rat only made necessary movements to keep its head above the water. For each test, a fresh water was provided. Open field test in rats: The test was conducted as previously reported by our research group.[52] The test was performed in a darkened room employing the Motor Monitor System (Campden Instruments, Ltd., U.K.). The system was equipped with two SmartFrame Open Field stations, each measuring 40 cm × 40 cm × 38 cm and consisting of 16 × 16 beams. These stations were placed inside sound-attenuating chambers and connected to a PC software using […]. The animals, belonging to either the vehicle-injected or drug-injected group, were individually positioned at the center of the station. The Motor Monitor System, which was automated, recorded the animal’s ambulation in both the X and Y axes, as well as the number of rearing and peeping episodes. Additionally, the total distance traveled by each animal during the 5 min test period was also recorded. Statistical analysis: Results are presented as the mean ± SEM values. They were estimated using one-way analysis of variance (ANOVA), followed by Newman–Keuls post hoc or unpaired two-tailed Student t test. Statistical significance was considered when p < 0.05 for differences between groups.

[4] = biological target: 5-HT6 receptor (Homo sapiens, UniProt P50406); experiment: Radioligand binding assay for 5-HT6 receptor ([3H]-LSD displacement); set-up: expressed in transfected cells; host or cells: HEK-293 (cryopreserved membranes); details: competitive replacement of [3H]-LSD; ±S.E.M.; read-out: 5-HT6R Ki
Protocol: To determine the affinity for 5-HT6, the cryopreserved membranes from HEK-293 cells stably transfected with the human recombinant 5-HT6 receptor were used.[40] Preparation of the tested compounds included preparation of stock solutions in DMSO (1 mM) and subsequent serial dilutions (10^–10–10^–5 M) of tested compounds in the appropriate buffer (50 mM Tris buffer, pH 7.4, 10 mM MgCl2, 0.5 mM ethylenediaminetetraacetic acid). The serial dilutions were acquired directly on a 96-well microplate. The reaction mix included 50 μL of appropriate concentration of tested molecule, 50 μL of [^3H]LSD 2.5/2.0 nM, and 150 μL of diluted membranes. The microplate containing the reaction mix was protected with a sealing tape and incubated for 60 min at 37 °C. Quenching of the reaction mixtire included: rapid filtration through UniFilter 96 GF/B filter microplate and rapid washes using 200 μL 50 mM assay buffer and vacuum manifold and 96-well pipettor. The collected microplates were dried overnight at 37 °C. The UniFilter bottoms were sealed, and then 30 μL of Betaplate Scint liquid scintillator (PerkinElmer) was added to each well. […] The obtained data were fit to a one-site curve-fitting equation using Prism 5 software (GraphPad Software), and the Ki values were determined using the Cheng–Prusoff equation. Radioligand binding was performed in duplicates.

[5] = tested on: human α1β2γ2-GABA-A receptors; experiment: Electrophysiological studies, automated patch clamp (QPatch16X), HEK293 cells; format: cell-based; details: agonist mode, compound at 10 μM; current amplitude normalized to 10 μM GABA response; ±S.E.M.
Protocol: Electrophysiological studies were acquired using the QPatch16X automatic patch clamp platform (Sophion Biosciences) as described before.[42],[43] […] Before the assay, cells were detached from the culture flask by treating them with TrypLE Express solution (Life Technologies) and subsequently suspended in serum-free media. The cells were loaded into a 1.5 mL microtube on the automated electrophysiology instrument, which subsequently performed a spin-down using its built-in centrifuge. Following this, the cells were washed with Ringer’s extracellular solution. The cells were moved to the pipetting wells of a 16-channel planar patch chip plate (QPlate 16X) designed for single-use. A combined suction/voltage protocol was then applied to establish gigaseals. […] During the entire whole-cell recording, the holding potential was maintained at −90 mV. […] The intracellular solution contained 140 mM CsF, 1 mM EGTA, 5 mM CsOH, 10 mM HEPES, 20 mMNaCl (pH 7.2, 320 mOsm). […] The acquired data were examined with QPatch assay software (v5.0, Sophion Biosciences)[44] and are represented as the mean of three separated measurements performed on distinct cells. The efficacy of the tested molecules was determined by calculating the baseline-corrected ratio of the maximum current amplitudes elicited by the tested compounds and the reference agonist (T1-ATG/AG1-ATG or T2-ATG/AG1-ATG). The raw current recordings were standardized and presented as a percentage of the current amplitude evoked by the reference agonist, using the QPatch assay software (v5.0, Sophion Biosciences).

[6] = tested on: female Wistar rats; set-up: method as in PMID 36603509; details: not tested here; cited from earlier work
[7] = Parallel artificial membrane permeability assay (PAMPA); format: in vitro ADME; details: tested at 10^–5 M, PAMPA Plate System Gentest
Protocol: To estimate the passive transport through cell membranes, we used specialized PAMPA Plate System Gentest acquired from Corning (Tewksbury, MA, USA). The assay was performed as described in the manufacturer’s protocol. The quantitative measurements of tested molecules in apical and basolateral wells were conducted using LC/MS (Waters ACQUITY TQD system with the TQ detector, Milford, USA) and a specific internal standard. The Pe permeability coefficient was calculated rendering the formulas described previously[47],[47] and compared to the reference compound sulpiride.

Chain of 5-HT6 receptor (P50406 whole entry): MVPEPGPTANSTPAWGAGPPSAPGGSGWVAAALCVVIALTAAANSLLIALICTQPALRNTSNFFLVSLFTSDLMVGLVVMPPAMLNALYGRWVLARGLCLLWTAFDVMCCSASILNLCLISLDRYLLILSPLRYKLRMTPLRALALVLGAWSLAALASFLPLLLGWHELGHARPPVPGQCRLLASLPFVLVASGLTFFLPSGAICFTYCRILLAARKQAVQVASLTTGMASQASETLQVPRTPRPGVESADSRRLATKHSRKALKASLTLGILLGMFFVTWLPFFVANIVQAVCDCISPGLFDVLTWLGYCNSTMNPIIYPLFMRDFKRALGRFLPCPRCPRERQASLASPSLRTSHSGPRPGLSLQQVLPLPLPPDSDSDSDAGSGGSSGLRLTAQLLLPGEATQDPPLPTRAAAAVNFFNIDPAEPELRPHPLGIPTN

Cc1c(OCc2ccccc2)cccc1N1CCN(CCO)CC1 [Compound 6, 2-(4-(3-(Benzyloxy)-2-methylphenyl)piperazin-1-yl)ethan-1-ol]
LPS-induced IL-6 production [1]: did not change
LPS-induced NO production [1]: did not change
LPS-induced ROS production [1]: did not change
LPS-induced TNF-α production [1]: did not change
mitochondrial membrane potential / morphology of microglia exposed to LPS [2]: mitochondrial membrane potential was changed
immobility, climbing and swimming behaviors [3]: did not influence any of the above behaviors
Ki [4]: 8 ± 0.8 nM

NCCCC(=O)O [GABA]
[%] of 10 μM GABA activity [5]: 100%
antidepressant effects [6]: does not produce antidepressant effects

CCN1CCCC1CNC(=O)c1cc(S(N)(=O)=O)ccc1OC (stereo not shown) [sulpiride, reference compound]
Papp [7]: 0.016 ×10⁻⁶ cm/s

From publication PMC10119930, “Dual Molecules Targeting 5-HT6 and GABA-A Receptors as a New Approach to Combat Depression Associated with Neuroinflammation” (ACS Chemical Neuroscience, 2023)
